Reference: PubChem BioAssay (NCI)
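1) Cells in 96-well plates. 2) Compound, 48 h, 5 concentrations. 3) Linear interpolation between surrounding doses. 4) Unreached endpoint = highest concentration. TGI denotes the concentration required for complete inhibition of growth.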

What was measured:
Experiment in all cases: NCI tumour cell line growth inhibition, 48 h
NCI-H23 lung = tested on: NCI-H23 lung
NCI-H522 lung = tested on: NCI-H522 lung
HCC-2998 colon = tested on: HCC-2998 colon
CAKI-1 renal = tested on: CAKI-1 renal
DU-145 prostate = tested on: DU-145 prostate
SF-295 CNS = tested on: SF-295 CNS
M14 melanoma = tested on: M14 melanoma
MALME-3M melanoma = tested on: MALME-3M melanoma
MDA-MB-435 = tested on: MDA-MB-435
OVCAR-8 ovarian = tested on: OVCAR-8 ovarian
SK-OV-3 ovarian = tested on: SK-OV-3 ovarian
786-0 renal = tested on: 786-0 renal
MCF7 breast = tested on: MCF7 breast
K-562 leukemia = tested on: K-562 leukemia
HCT-15 colon = tested on: HCT-15 colon
T-47D breast = tested on: T-47D breast
SNB-19 CNS = tested on: SNB-19 CNS
A549 NSCLC = tested on: A549 NSCLC
A498 renal = tested on: A498 renal

Structure (SMILES) | TGI (NCI-H23 lung) [µM] | TGI (NCI-H522 lung) [µM] | TGI (HCC-2998 colon) [µM] | TGI (CAKI-1 renal) [µM] | TGI (DU-145 prostate) [µM] | TGI (SF-295 CNS) [µM] | TGI (M14 melanoma) [µM] | TGI (MALME-3M melanoma) [µM] | TGI (MDA-MB-435) [µM] | TGI (OVCAR-8 ovarian) [µM] | TGI (SK-OV-3 ovarian) [µM] | TGI (786-0 renal) [µM] | TGI (MCF7 breast) [µM] | TGI (K-562 leukemia) [µM] | TGI (HCT-15 colon) [µM] | TGI (T-47D breast) [µM] | TGI (SNB-19 CNS) [µM] | TGI (A549 NSCLC) [µM] | TGI (A498 renal) [µM]
CC(C)CC1C(=O)NCCC(NC(=O)C(Cc2ccc(OC(C)(C)C)cc2)NC(=O)OC(C)(C)C)C(=O)NC(Cc2ccccc2)C(=O)NC(Cc2ccccc2)NC1=O (stereo not drawn) | 33.7 | 35.4 | 35.4 | > 100 | > 100 | 22.8 | 32.2 | 32 | 12.2 | 20.6 | 45.9 | 4.92 | 52.3 | 10.3 | > 100 | 22.2 | 42.4 | – | –
COc1cc(C(=O)n2c3ccc(Br)cc3c3nc4ccccc4nc32)cc(OC)c1OC | > 100 | > 100 | > 100 | > 100 | > 100 | > 100 | > 100 | > 100 | > 100 | > 100 | – | > 100 | > 100 | > 100 | > 100 | > 100 | > 100 | – | –
COCC1OC(Sc2ccccc2)C(O)C(OC)C1OC (stereo not drawn) | > 100 | > 100 | > 100 | > 100 | > 100 | > 100 | > 100 | > 100 | > 100 | > 100 | > 100 | > 100 | > 100 | > 100 | > 100 | > 100 | > 100 | > 100 | –
COc1ccccc1/C(=N\OCCC(=O)O)c1cccs1 | > 100 | – | > 100 | > 100 | > 100 | > 100 | – | > 100 | > 100 | > 100 | > 100 | > 100 | > 100 | > 100 | > 100 | > 100 | > 100 | > 100 | > 100
NC1CC(=O)c2c(Br)csc21 (stereo not drawn) | – | – | 44.8 | > 100 | > 100 | – | > 100 | > 100 | 66.3 | > 100 | > 100 | > 100 | > 100 | > 100 | > 100 | > 100 | > 100 | > 100 | > 100
OCCCCCCCCCCCOc1ccc(C2OCC3(CO2)COC(c2ccc(OCCCCCCCCCCCO)cc2)OC3)cc1 (stereo not drawn) | > 50 | – | > 50 | > 50 | > 50 | > 50 | > 50 | > 50 | > 50 | > 50 | > 50 | > 50 | > 50 | > 50 | > 50 | > 50 | > 50 | > 50 | > 50
CC(=O)Nc1ccc(C(=O)NN2C(=O)CSC2c2ccc([N+](=O)[O-])cc2)cc1 (stereo not drawn) | > 100 | – | > 100 | – | > 100 | > 100 | > 100 | – | > 100 | > 100 | > 100 | > 100 | > 100 | > 100 | > 100 | > 100 | > 100 | > 100 | > 100
N=C1/C(=C/c2ccc(F)cc2)C(=O)N=C2SC=NN12 | > 100 | > 100 | > 100 | > 100 | > 100 | > 100 | > 100 | > 100 | > 100 | > 100 | > 100 | > 100 | > 100 | > 100 | > 100 | > 100 | > 100 | > 100 | –
CS(=O)(=O)O[C@H]1CN2C[C@@H](O)[C@@H](O)[C@H]2[C@H]1CO | > 100 | – | > 100 | > 100 | > 100 | > 100 | > 100 | > 100 | > 100 | > 100 | > 100 | > 100 | > 100 | > 100 | > 100 | > 100 | > 100 | > 100 | > 100
O=c1cnn(C2OC(C(O)CO)C(O)C2O)c(=O)[nH]1 (stereo not drawn) | > 100 | > 100 | > 100 | > 100 | > 100 | – | > 100 | > 100 | > 100 | > 100 | > 100 | > 100 | > 100 | > 100 | > 100 | > 100 | > 100 | > 100 | –
CCCCS(=O)CCC(N)P(=O)(O)O (stereo not drawn) | > 100 | > 100 | – | > 100 | > 100 | > 100 | > 100 | > 100 | > 100 | > 100 | > 100 | > 100 | > 100 | > 100 | > 100 | > 100 | > 100 | > 100 | –
